The results in this text go back to patent US4767767A, “2-pyrrolidinylethyl-2-(7-trifluoromethyl-4-quinolyl-aminobenzoate having analgesic, antipyretic and anti-inflammatory activities” (Ferrer Internacional S.A., priority 1982, dated 1988).

Like-named read-outs stand apart in the source and are kept apart here.

Data set [1] concerns brewer's yeast test in rat. Briefly: analgesic activity, brewer's yeast test in rat (Winter et al. 1965). It counts as in vivo. To be noted: read-out: Analgesic activity ED50. The source says: (§1) The compounds show an outstanding analgesic activity, especially upon oral application versus the brewer's yeast test in rat as described by Winter et al. (J. Pharm. Exp. Ther., 150(1), 165-171, 1965). Also these compounds have shown anti-inflammatory activity especially upon oral application versus the Carrageenin test in rats as described by Winter et al. (Proc. Soc. Exp. Biol. Med., 111, 544-547, 1962). The results for the analgesic evaluation are expressed as ED50 and those for the anti-inflammatory evaluation expressed as the activity rate observed on administering the compounds at a dose of 5 mg/kg.

A further data set deals with Carrageenin test in rats. Briefly: anti-inflammatory activity, Carrageenin test in rats (Winter et al. 1962). It counts as in vivo, rat. To be noted: read-out: Antiinflammatory activity.
Excerpt: as §1

Data set [2] in a line: acute oral toxicity LD50 in mice (Reed-Muench method modified by Pizzi). Particulars: mouse, in vivo; oral administration to mice; as free base. The text has this:
Moreover, the above compounds have shown a low toxicity which makes them useful in therapy. […] Evaluation was made according to the method by Reed-Muench as modified by Pizzi (Human & Biology, 22(3), 151-190, 1950) by oral administration to mice.

The mark [3] stands for this setting: brewer's yeast test, rat, oral, as free base.
Where [4] appears, read: Carrageenin test, rat, oral, dose of 5 mg/kg, as free base.

In the case of `CC(=O)Oc1ccccc1C(=O)O` [Acetylsalycilic acid, acetylsalicylic acid, reference compound], the ED50 in data set [1] (setting [3]) turned out to be 73 mg/kg. Besides, the inhibition in vivo at 5 mg/kg with Carrageenin test in rats (Rattus norvegicus, po) was found to be 23.2%.
Consider `O=C(OCCN1CCN(c2cccc(C(F)(F)F)c2)CC1)c1ccccc1Nc1ccnc2cc(C(F)(F)F)ccc12` [Antrafenine, reference compound], for which the ED50 in data set [1] (Rattus norvegicus, po) came out at 43 mg/kg. Also, in the data set on Carrageenin test in rats (Rattus norvegicus, po), the inhibition in vivo at 5 mg/kg turned out to be 3.6%.
On to `O=C(OCCN1CCCC1)c1ccccc1Nc1ccnc2cc(Cl)ccc12` [Example 1, 2-Pyrrolidinylethyl 2-(7-chloro-4-quinolyl)aminobenzoate], for which the ED50 in data set [1] (setting [3]) was 38 mg/kg. Moreover, in the data set with Carrageenin test in rats (setting [4]), the inhibition in vivo at 5 mg/kg was found to be 35.6%. The LD50 in data set [2] was determined as 2000 mg/kg.
With `O=C(OCCN1CCCC1)c1ccccc1Nc1ccnc2cc(C(F)(F)F)ccc12` [Example 2, 2-Pyrrolidinylethyl 2-(7-trifluoromethyl-4-quinolyl)aminobenzoate], in data set [1] (setting [3]), the ED50 amounted to 2.9 mg/kg. Further, the inhibition in vivo at 5 mg/kg with Carrageenin test in rats (setting [4]) was found to be 38%. The same molecule returned an LD50 in data set [2] of 630 mg/kg.
For `O=C(OCCN1CCCCC1)c1ccccc1Nc1ccnc2cc(Cl)ccc12` [Example 3, 2-Piperidinylethyl-2-(7-chloro-4-quinolyl)aminobenzoate] the same measures were 67 mg/kg, 23.1% and greater than 2000 mg/kg.
In the case of `O=C(OCCN1CCCCC1)c1ccccc1Nc1ccnc2cc(C(F)(F)F)ccc12` [Example 4, 2-Piperidinylethyl 2-(7-trifluoromethyl-4-quinolyl)aminobenzoate], the ED50 in data set [1] (setting [3]) is 3 mg/kg. Moreover, in the data set on Carrageenin test in rats (setting [4]), the inhibition in vivo at 5 mg/kg amounted to 23.2%. The LD50 in data set [2] was 635 mg/kg.
With `O=C(OCCN1CCCCCC1)c1ccccc1Nc1ccnc2cc(Cl)ccc12` [Example 5, 2-Homopiperidinylethyl 2-(7-chloro-4-quinolyl)aminobenzoate], the ED50 in data set [1] (setting [3]) worked out at 5.4 mg/kg. The inhibition in vivo at 5 mg/kg with Carrageenin test in rats (setting [4]) was 17.3%.
In the same order, the values of `O=C(OCCN1CCCCCC1)c1ccccc1Nc1ccnc2cc(C(F)(F)F)ccc12` [Example 6, 2-Homopiperidinylethyl 2-(7-trifluoromethyl-4-quinolyl)aminobenzoate] are 7 mg/kg and 27.9%.
For `O=C(OCCOCCN1CCCC1)c1ccccc1Nc1ccnc2cc(Cl)ccc12` [Example 7, 2-(2-Pyrrolidineethoxy)ethyl 2-(7-chloro-4-quinolyl)aminobenzoate] the same measures were 18.5 mg/kg and 5.1%.
In the same order, the values of `O=C(OCCOCCN1CCCC1)c1ccccc1Nc1ccnc2cc(C(F)(F)F)ccc12` [Example 8, 2-(2-Pyrrolidineethoxy)ethyl 2-(7-trifluoromethyl-4-quinolyl)aminobenzoate] are 14.7 mg/kg and 26.2%.
Take `O=C(OCCOCCN1CCCCC1)c1ccccc1Nc1ccnc2cc(Cl)ccc12` [Example 9]: the median effective dose (ED50) in data set [1] (setting [3]) turned out to be 21.7 mg/kg. Also, in the data set on Carrageenin test in rats (setting [4]), the inhibition in vivo at 5 mg/kg was 33.2%.
`O=C(OCCOCCN1CCCCCC1)c1ccccc1Nc1ccnc2cc(Cl)ccc12` [Example 11, 2-(2-Homopiperidineethoxy)ethyl 2-(7-chloro-4-quinolyl)aminobenzoate]: the ED50 in data set [1] (setting [3]) was found to be 13.3 mg/kg. In addition, in the data set with Carrageenin test in rats (setting [4]), the inhibition in vivo at 5 mg/kg came to 21.2%.
In the same order, the values of `O=C(OCCOCCN1CCCCCC1)c1ccccc1Nc1ccnc2cc(C(F)(F)F)ccc12` [Example 12, 2-(2-Homopiperidineethoxy)ethyl 2-(7-trifluoromethyl-4-quinolyl)aminobenzoate] are 6.6 mg/kg and 28.8%.
As to `O=C(OCC1CCCCO1)c1ccccc1Nc1ccnc2cc(Cl)ccc12` (stereo not shown) [Example 14, 2-Tetrahydropyranylmethyl 2-(7-chloro-4-quinolyl)aminobenzoate], the 50% effective dose (ED50) in data set [1] (setting [3]) came to 22 mg/kg. Moreover, in the data set on Carrageenin test in rats (setting [4]), the inhibition in vivo at 5 mg/kg came to 19.5%.
For `O=C(OCC1CCCCO1)c1ccccc1Nc1ccnc2cc(C(F)(F)F)ccc12` (stereo not shown) [Example 15, 2-Tetrahydropyranylmethyl 2-(7-trifluoromethyl-4-quinolyl)aminobenzoate] the same measures were 9.3 mg/kg and 26.1%.
Consider `O=C(OCOCc1ccccc1)c1ccccc1Nc1ccnc2cc(Cl)ccc12` [Example 16, Benzyloxymethyl 2-(7-chloro-4-quinolyl)aminobenzoate], for which, in data set [1] (setting [3]), the ED50 came out at 6.3 mg/kg. Also, the inhibition in vivo at 5 mg/kg in the data set on Carrageenin test in rats (setting [4]) was 27.7%. Besides, the LD50 in data set [2] was greater than 8000 mg/kg.
`O=C(OCOCc1ccccc1)c1ccccc1Nc1ccnc2cc(C(F)(F)F)ccc12` [Example 17, Benzyloxymethyl 2-(7-trifluoromethyl-4-quinolyl)aminobenzoate]: in data set [1] (setting [3]), the ED50 amounted to 64.5 mg/kg. For the same molecule, in the data set with Carrageenin test in rats (setting [4]), the inhibition in vivo at 5 mg/kg was 30.5%.
For `O=C(OCOC(=O)c1ccccc1Nc1ccnc2cc(Cl)ccc12)c1ccccc1` [Example 18, Benzoyloxymethyl 2-(7-chloro-4-quinolyl)aminobenzoate], the ED50 in data set [1] (setting [3]) was determined as 82.5 mg/kg. For the same molecule, the inhibition in vivo at 5 mg/kg in the data set with Carrageenin test in rats (setting [4]) worked out at 31%.
For `O=C(OCOC(=O)c1ccccc1Nc1ccnc2cc(C(F)(F)F)ccc12)c1ccccc1` [Example 19, Benzoyloxymethyl 2-(7-trifluoromethyl-4-quinolyl)aminobenzoate] the same measures were 3.8 mg/kg and 30.5%.
In the same order, the values of `O=C(OC1OC(=O)c2ccccc21)c1ccccc1Nc1ccnc2cc(Cl)ccc12` (stereo not shown) [Example 20, 1(3H)-isobenzofuranone-3-yl 2-(7-chloro-4-quinolyl)aminobenzoate] are 71 mg/kg and 26.2%.
In the same order, the values of `O=C(OC1OC(=O)c2ccccc21)c1ccccc1Nc1ccnc2cc(C(F)(F)F)ccc12` (stereo not shown) [Example 21, 1(3H)-isobenzofuranone-3-yl 2-(7-trifluoromethyl-4-quinolyl)aminobenzoate] are 26 mg/kg and 38.4%.
For the molecule `O=C(OCC(O)CO)c1ccccc1Nc1ccnc2c(C(F)(F)F)cccc12` (stereo not shown) [Floctafenine, reference compound], the ED50 in data set [1] (setting [3]) was determined as 2.2 mg/kg. In addition, the inhibition in vivo at 5 mg/kg with Carrageenin test in rats (setting [4]) was 21.6%.
Turning to `O=C(OCC(O)CO)c1ccccc1Nc1ccnc2cc(Cl)ccc12` (stereo not shown) [Glafenine, reference compound], in data set [1] (Rattus norvegicus, po), the ED50 is 26.5 mg/kg. Also, the inhibition in vivo at 5 mg/kg in the data set on Carrageenin test in rats (Rattus norvegicus, po) was 25.6%. In data set [2], the LD50 is 2100 mg/kg.

In general, ED50 refers to the dose at which the effect has come halfway, by size or by number of responders. One may read the LD50 as the dose expected to kill half of the subjects tested. Read a low LD50 as a more toxic substance.
